Columns and labels:
GBM = GBM patients, PDT; cited from earlier work
[1] = Ce6 at 667 nm, PpIX at 631 nm; in M-1cm-1 (unit assumed); cited from earlier work
[2] = Vials of free Ce6 or Ce6 nanoclusters in water; assay type: physicochemical; conditions: equal concentrations of Ce6
Protocol: FIG. 43 is a photograph of vials containing solution with free Ce6 or Ce6 nanoclusters in water (at equal concentrations of Ce6).
The size distribution of Ce6 nanoclusters was measured by dynamic light scattering (DLS) in water at 25° C. (FIG. 39). The amphiphilic Ce6 molecules solubilized the PCL, creating stable nanoclusters with an average hydrodynamic diameter of 58±4 nm and an average polydispersity index (PDI) of <0.2. Fluorescence detection takes place when Ce6 is excited at around 404 nm, which then emits a characteristic reference fluorescence peak at approximately 650 nm (FIG. 40).

[3] = Absorbance spectrum in water (solubility); assay type: physicochemical
Protocol: FIGS. 22A-22D. (FIG. 22A) Illustration of Ce6-coated SPION nanoclusters (Ce6-SCs). Iron oxide nanoparticles are stabilized in aqueous media by the self-assembly of amphiphilic PS Chlorin e6 on the surface using a microemulsion. (FIG. 22B) Dynamic light scattering (DLS) of Ce6-SCs in water. […] (FIG. 22C) Particle size and T2 relaxation time was monitored for 6 days in water at 25° C. (FIG. 22D) Magnetic resonance (MR) relaxometry measurements of Ce6-SCs. Inset: T2-weighted image of Ce6-SCs at various concentrations in a microplate. (FIG. 22E) Absorbance spectra of Ce6-SCs (black) and free Ce6 (brown) in water. The inset images are vials containing solutions of Ce6-SCs and free Ce6 in water.
Relaxometry measurements indicated an average r2 value of 301±4 mM^−1 s^−1 and MR images of a phantom confirmed strong T2 contrast relative to water (FIG. 22D).

behaviour in water [2]	solubility in water judged from absorbance spectrum (peak at ~665 nm) [3]	Molecule	adverse events (GBM)	overall survival (GBM) [months]	peak extinction coefficient [1]
		C=Cc1c(C)c2cc3nc(c(CC(=O)N[C@@H](CC(=O)O)C(=O)O)c4[nH]c(cc5nc(cc1[nH]2)C(C)=C5CC)c(C)c4C(=O)O)[C@@H](CCC(=O)O)[C@@H]3C [talaporfin, mono-L-aspartyl chlorin e6]	only mild adverse events	24.8	
aggregate and precipitate in water	poor solubility	Chlorin e6 [Ce6]			55,000

Source: patent publication US11446391B2, “Amphiphilic dye-coated inorganic nanoparticle clusters” (THE TRUSTEES OF THE UNIVERSITY OF PENNSYLVANIA, priority 2017, dated 2022)
